According to the NIST ThermoML archive (doi:10.1016/j.fluid.2008.03.004):

Tests used:
[1] = xn = mol fraction of the nth substance listed; conditions: 101 kPa, Liquid, x2 = 0; for speed of sound: Sing-around technique in a fixed-path interferometer
[2] = 101 kPa, Liquid; for speed of sound: Sing-around technique in a fixed-path interferometer

Cc1cccc(C)c1 [1,3-dimethylbenzene] + CCOC(C)(C)C
[1]
Conditions | mass density [kg/m3] | speed of sound [m/s]
288.15 K | 868.459 | 1362.7
290.65 K | 866.318 | 1352.1
293.15 K | 864.177 | 1341.7
295.65 K | 862.035 | 1331.3
298.15 K | 859.89 | 1320.9
300.65 K | 857.742 | 1310.6
303.15 K | 855.593 | 1300.3
305.65 K | 853.441 | 1290
308.15 K | 851.282 | 1279.8
310.65 K | 849.122 | 1269.6
313.15 K | 846.958 | 1259.5
315.65 K | 844.792 | 1249.3
318.15 K | 842.622 | 1239.3
320.65 K | 840.452 | 1229.3
323.15 K | 838.289 | 1219.5

Cc1ccc(C)cc1 [1,4-dimethylbenzene]
[2]
Conditions | mass density [kg/m3] | speed of sound [m/s]
288.15 K | 865.354 | 1347.9
290.65 K | 863.184 | 1336.9
293.15 K | 861.015 | 1326.1
295.65 K | 858.846 | 1315.6
298.15 K | 856.675 | 1305.4
300.65 K | 854.501 | 1295.3
303.15 K | 852.326 | 1285.4
305.65 K | 850.148 | 1275.6
308.15 K | 847.969 | 1266.1
310.65 K | 845.784 | 1256.4
313.15 K | 843.599 | 1246.8
315.65 K | 841.41 | 1237.6
318.15 K | 839.22 | 1228.1
320.65 K | 837.031 | 1220.5
323.15 K | 834.849 | 1211

Cc1cccc(C)c1 [1,3-dimethylbenzene]
[2]
Conditions | mass density [kg/m3] | speed of sound [m/s]
288.15 K | 868.459 | 1362.7
290.65 K | 866.318 | 1352.1
293.15 K | 864.177 | 1341.7
295.65 K | 862.035 | 1331.3
298.15 K | 859.89 | 1320.9
300.65 K | 857.742 | 1310.6
303.15 K | 855.593 | 1300.3
305.65 K | 853.441 | 1290
308.15 K | 851.282 | 1279.8
310.65 K | 849.122 | 1269.6
313.15 K | 846.958 | 1259.5
315.65 K | 844.792 | 1249.3
318.15 K | 842.622 | 1239.3
320.65 K | 840.452 | 1229.3
323.15 K | 838.289 | 1219.5

Cc1ccc(C)cc1 [1,4-dimethylbenzene] + CCOC(C)(C)C
[1]
Conditions | mass density [kg/m3] | speed of sound [m/s]
288.15 K | 865.354 | 1347.9
290.65 K | 863.184 | 1336.9
293.15 K | 861.015 | 1326.1
295.65 K | 858.846 | 1315.6
298.15 K | 856.675 | 1305.4
300.65 K | 854.501 | 1295.3
303.15 K | 852.326 | 1285.4
305.65 K | 850.148 | 1275.6
308.15 K | 847.969 | 1266.1
310.65 K | 845.784 | 1256.4
313.15 K | 843.599 | 1246.8
315.65 K | 841.41 | 1237.6
318.15 K | 839.22 | 1228.1
320.65 K | 837.031 | 1220.5
323.15 K | 834.849 | 1211

CCOC(C)(C)C [2-ethoxy-2-methylpropane]
[2]
Conditions | mass density [kg/m3] | speed of sound [m/s]
288.15 K | 744.955 | 1076.4
290.65 K | 742.482 | 1065.1
293.15 K | 739.947 | 1053.7
295.65 K | 737.374 | 1042.2
298.15 K | 734.806 | 1031
300.65 K | 732.225 | 1019.8
303.15 K | 729.647 | 1008.6
305.65 K | 727.038 | 997.52
308.15 K | 724.443 | 986.39
310.65 K | 721.826 | 975.42
313.15 K | 719.179 | 964.53
315.65 K | 716.527 | 953.54
318.15 K | 713.96 | 942.67
320.65 K | 711.25 | 931.73
323.15 K | 708.642 | 920.73
